Measurements from US6916446B1, “Bioreactor method, apparatus and product thereby” (The United States of America as represented by the …, priority 2002, dated 2005).
Values joined by “and” are separate entries in the source; they are usually repeats but may differ in a detail not shown here. Identical values can stand only once.

How the values were obtained:
[1] = tested on: strain IMB-1; assay: 14C-MeBr oxidation assay on washed cell suspensions; format: cell-based, strain IMB-1 (ATCC 202197); details: cells grown on the substrate indicated
[2] = tested on: strain IMB-1; assay: Batch oxidation of MeBr in bottles containing cell suspensions of strain IMB-1; format: cell-based, strain IMB-1 (ATCC 202197); set-up: MeBr Oxidation Rate per Cell: unit not given here; details: for CO2 Production Rate: corrected for respiration
[3] = tested on: strain IMB-1; assay: Closed-system re-circulating bioreactor with washed cell suspension of strain IMB-1; format: cell-based, strain IMB-1 (ATCC 202197)
Experimental: Procedures for forming the methylotrophic bacterium 18 within the bioreactor 10 include, for example and without limitation, strain IMB-1 being grown aerobically in batch mode using pulsed additions of MeBr for use as an inoculum for the bioreactor. Additions of MeBr from about 0.01 to about 0.1 g were made approximately daily for several weeks. Cells (1 L) were grown to elevated density (approximately 1.5×10^8 cells/cm^3) in stoppered, 2-L flasks with rotary shaking. Growth occurred in mineral salts media containing mono- and dibasic phosphate (ΣPO4^31 '=1.4 mM) as well as sulfate and trace minerals (see e.g. Schaefer, J. K. and R. S. Oremland, Oxidation of Methyl Halides by the Facultative Methylotroph Strain IMB-1. Appl. Environ. Microbiol. 65 (1999): pp 5035-5041) the disclosure of which is hereby incorporated by reference. Media concentrations were tripled in order to provide additional nutrients and buffer capacity. Cells were grown at about 28° C. Cells were washed and re-suspended to 0.5 L in fresh media and transferred to the gas-washing bottle of the bioreactor having an initial cell density approximately equal to 3×10^8 cells/cm^3. Once the methylotrophic bacterium 18 constitutes part of the biofilter 16, the methyl halide is pumped from the reservoir 14 to the biofilter 16 for direct oxidation.
The biofilter 16 includes a mass of methylotrophic bacteria 18 within a container for bio-degradation of the methyl halides 30. The biofilter 16 constitutes the active surface of the bioreactor 10. The initial cell density was 3×10^8 cells/cm^3. The peristaltic pump 12 was used to circulate the methyl halide 30 gas in this system at a flow rate of 0.2 liter/min through inert rubber tubing (Pharmed), manufactured by Cole Parmer of Vernon Hills, Ill., and having 0.4 cm I.D. Stainless steel tubing (0.4 cm I.D.) was used to connect the components of the bioreactor 10. Methane (CH4) was added (3.2 g/m^3) to serve as a control and an internal standard.
A closed-system bioreactor was built using the general design of FIG. 1 and employed for testing on a laboratory bench. The bioreactor was started with 0.5 L of growing culture of methylotrophic bacteria strain IMB-1 and removed MeBr at fumigation concentrations (>17 g/m^3) from re-circulating air. Strain IMB-1 grew to high cell densities (5×10^9 cells/cm^3) in the bioreactor within several days using pulsed additions of MeBr as the sole carbon and energy source. The addition of the MeBr was done as a gas. Bacterial oxidation of MeBr produced CO2 and hydrobromic acid (HBr) which could be neutralized by addition of NaOH. Strain IMB-1 was capable of sustained oxidation of large amounts of MeBr (16 g in 46 days). […] Oxidation of MeBr was unaffected by the presence of elevated dissolved solutes (>26 g/kg) that approached the salinity of seawater. Strain IMB-1 grown on MeBr was 7 times more efficient at removing MeBr from the headspace of flasks than cultures grown on glucose (55 vs. 8×10^−15 g MeBr/cell/hr, respectively). An open-system bioreactor having 10 L of growing culture used a continuous supply of MeBr (21.2 g/m^3 in air). Growth of strain IMB-1 was continuous and 80 g of MeBr was removed from the air supply in 15 days.

[4] = tested on: strain IMB-1; assay: Open-system bioreactor, 10 L growing culture, continuous supply of MeBr; format: cell-based, strain IMB-1 (ATCC 202197); details: in 15 days; 21.2 g/m^3 MeBr in air, 10 L culture
From the text: The bioreactor may be designed to maximize the rate of oxidation of methyl bromide, particularly when using strain IMB-1. For example, without limitation, a twelve (12)-liter fermenter may be used to grow 10-L of cells of IMB-1 in batch culture for flow-through. Preferably, the fermenter is used in continuous-flow mode to grow IMB-1 using 21.2 g/m^3 MeBr as the feedstock. Use of strain 1 IMB-1 in a bioreactor is used in the present invention to directly oxidize various concentrations of the methyl halide, preferably methyl bromide or methyl iodide, for example without limitation high concentrations of approximately 30,000 ppm or 125 g/m^3. Direct oxidation of methyl bromide is most preferred.
A closed-system bioreactor was built using the general design of FIG. 1 and employed for testing on a laboratory bench. The bioreactor was started with 0.5 L of growing culture of methylotrophic bacteria strain IMB-1 and removed MeBr at fumigation concentrations (>17 g/m^3) from re-circulating air. Strain IMB-1 grew to high cell densities (5×10^9 cells/cm^3) in the bioreactor within several days using pulsed additions of MeBr as the sole carbon and energy source. The addition of the MeBr was done as a gas. Bacterial oxidation of MeBr produced CO2 and hydrobromic acid (HBr) which could be neutralized by addition of NaOH. […]

[5] = tested on: Bacillus anthracis (anthrax) and its spores; details: cited from earlier work
[6] = tested on: strain IMB-1; assay: Growth of strain IMB-1 on substrates in mineral salts medium (Balch tubes); details: substrate as electron donor / carbon and energy source
[7] = 3 × 10^7 cells/cm^3, 0.76 mg MeBr added
[8] = 3 × 10^7 cells/cm^3, 1.36 mg MeBr added
[9] = 3 × 10^7 cells/cm^3, 5.30 mg MeBr added
[10] = 3 × 10^8 cells/cm^3, 0.76 mg MeBr added
[11] = 3 × 10^8 cells/cm^3, 1.36 mg MeBr added
[12] = 3 × 10^8 cells/cm^3, 5.30 mg MeBr added
[13] = 3 × 10^9 cells/cm^3, 0.76 mg MeBr added
[14] = 3 × 10^9 cells/cm^3, 1.36 mg MeBr added
[15] = 3 × 10^9 cells/cm^3, 5.30 mg MeBr added

CBr [MeBr, methyl bromide]
MeBr oxidized [1]: 1.4 pmol/10^6 cells/h
time to removal of MeBr ([2]; 0.76 mg (1.2 mM in the liquid), bottles containing 1.5×10^8 cells): ≤ 190 h
time to removal of MeBr ([2]; 0.76 mg, bottles containing 10-fold more cells): ≤ 35 h
time to removal of MeBr ([2]; 0.76 mg, bottles containing 100-fold more cells (3×10^9 cells/cm^3)): ≤ 2 h
time to oxidation of MeBr ([2]; 1.2 mM in the liquid, cells grown on MeBr (2.8×10^8 cells)): within one hour
time to remove a similar amount of MeBr ([2]; 1.2 mM in the liquid, glucose-grown cells (3.6×10^8 cells)): greater than 5 hours
time to removal of MeBr ([2]; 1.36 mg MeBr, 3×10^9 cells/cm^3): ≤ 7 h
MeBr Oxidation Rate [2, 7]: 0.063 mg/day
MeBr Oxidation Rate Constant [2, 7]: 0.083 per d
MeBr Oxidation Rate per Cell [2, 7]: 4.1 ×10^10
CO2 Production Rate [2, 7]: 0.031 mg/day
MeBr Oxidation Rate [2, 8]: 0 mg/day
MeBr Oxidation Rate Constant [2, 8]: 0 per d
MeBr Oxidation Rate per Cell [2, 8]: 0 ×10^10
CO2 Production Rate [2, 8]: 0.002 mg/day
MeBr Oxidation Rate [2, 9]: 0 mg/day
MeBr Oxidation Rate Constant [2, 9]: 0 per d
MeBr Oxidation Rate per Cell [2, 9]: 0 ×10^10
CO2 Production Rate [2, 9]: 0 mg/day
MeBr Oxidation Rate [2, 10]: 0.555 mg/day
MeBr Oxidation Rate Constant [2, 10]: 0.73 per d
MeBr Oxidation Rate per Cell [2, 10]: 3.7 ×10^10
CO2 Production Rate [2, 10]: 0.224 mg/day
MeBr Oxidation Rate [2, 11]: 0.180 mg/day
MeBr Oxidation Rate Constant [2, 11]: 0.13 per d
MeBr Oxidation Rate per Cell [2, 11]: 1.2 ×10^10
CO2 Production Rate [2, 11]: 0.189 mg/day
MeBr Oxidation Rate [2, 12]: 0 mg/day
MeBr Oxidation Rate Constant [2, 12]: 0 per d
MeBr Oxidation Rate per Cell [2, 12]: 0 ×10^10
CO2 Production Rate [2, 12]: 0 mg/day
MeBr Oxidation Rate [2, 13]: 6.53 mg/day
MeBr Oxidation Rate Constant [2, 13]: 8.6 per d
MeBr Oxidation Rate per Cell [2, 13]: 4.4 ×10^10
CO2 Production Rate [2, 13]: 5.025 mg/day
MeBr Oxidation Rate [2, 14]: 3.52 mg/day
MeBr Oxidation Rate Constant [2, 14]: 2.59 per d
MeBr Oxidation Rate per Cell [2, 14]: 2.3 ×10^10
CO2 Production Rate [2, 14]: 1.990 mg/day
MeBr Oxidation Rate [2, 15]: 6.07 mg/day
MeBr Oxidation Rate Constant [2, 15]: 1.14 per d
MeBr Oxidation Rate per Cell [2, 15]: 4.0 ×10^10
CO2 Production Rate [2, 15]: 2.696 mg/day
MeBr removal from the headspace of flasks per cell ([2]; cultures grown on glucose): 8 ×10^−15 g MeBr/cell/hr
MeBr removal from the headspace of flasks per cell ([2]; strain IMB-1 grown on MeBr): 55 ×10^−15 g MeBr/cell/hr
time to consumption of added MeBr ([3]; 0.21 g added MeBr, by the third day of operation): ≤ 4 h
reduction of methyl bromide concentration during a single pass through the filter ([3]; after 2 weeks operation): up to 5 g/m^3
time to removal of all added MeBr ([3]; after several equivalent additions of 9 g/m^3 MeBr): approximately 6 hours
time to removal of added MeBr ([3]; first addition of 0.21 g MeBr): 24 h
amount of MeBr oxidized ([3]; in 46 days, pulses of 0.21 g up to three times a day): 16 g and 16.2 g
time to oxidation of initial levels of methyl bromide ([3]; initial 9 g/m^3, washed cell suspensions): ≤ 24 h
amount of MeBr removed from the air supply [4]: 80 g
killing of B. anthracis and its spores ([5]; Kolb and Schneiter 1950): kill
level at which methyl bromide functions as a microbicide and a pesticide ([5]; Schade and King 1977, tree nuts): about 25,000 ppm
growth of strain IMB-1 on the substrate (in words) [6]: grow using MeBr as a sole source of carbon and energy
